Key:
[1] = target: T1, Human LRH-1 Ligand Binding Domain (Homo sapiens, UniProt O00482); experiment: LRH-1 LBD / TIF2 Box3 coactivator peptide recruitment assay (Eu/APC, Lance mode); assay type: biochemical; details: n of 44
T1 construct: made in house; host or cells: E. coli BL21(DE3), pRSETa vector
Description: Human LRH-1 Ligand Binding Domain (LRH1 LBD) was expressed in E.coli strain BL21(DE3) as an amino-terminal polyhistidine tagged fusion protein. Expression was under the control of an IPTG inducible T7 promoter. DNA encoding this recombinant protein was subcloned into the pRSETa expression vector (Invitrogen). Sequence encoding the modified polyhistidine tag ([…]) was fused in frame to sequence encoding residues 248-501 of LRH-1. The coding sequence of Human LRH-1 LBD was derived from Genbank accession number U—93553.
Purified LRH-1 LBD was desalted/buffer exchanged using PD-10 gel filtration columns into PBS [100 mM NaPhosphate, pH 7.2, 150 mM NaCl]. LRH-1 LBD was diluted to approximately 10 microM in PBS and five-fold molar excess of NHS-LC-Biotin (Pierce) was added in a minimal volume of PBS. This solution was incubated with gentle mixing for 60 minutes at ambient room temperature. The biotinylation modification reaction was stopped by the addition of 2000× molar excess of Tris-HCl, pH 8. […]
The above solutions are gently mixed together to give a final preparation of 5E-9 M (5 nM) APC-labelled LRH1 LBD and 1E-8 M […] Europium-labelled TIF2 box3 peptide. […] The plates were incubated for 1 hr then read on Wallac Victor2 V in Lance mode for EU/APC. […]

[2] = tested on: APOAl mRNA levels in HepG2 cells; experiment: APOAl mRNA levels in HepG2 cells treated with compound (RT-QPCR); assay type: cell-based; details: 48 hours, 10 μm, vs vehicle (DMSO 0.1%), FIG. 4
Procedure: HepG2 and CV1 cells (ATCC, Rockville, Md.) were maintained in Basic Eagle's medium (BME) supplemented with 2 mM glutamine, 1% non-essential amino acids and 10% (v/v) fetal calf serum (FCS) in an atmosphere of 5% CO2 at 37° C.
Total cellular RNA was extracted using TRIZOL (Invitrogen). Real time quantitative PCR (RT-QPCR) assays were performed using an Applied Biosystems 7900 sequence detector. Total RNA (1 μg) was reverse transcribed with random hexamers using Taqman reverse-transcription reagents kit (Applied Biosystems) following the manufacturer's protocol. RNA expression levels were determined by Sybr green assays as described. 18SrRNA transcript was used as an internal control to normalize the variations for RNA amounts. Gene expression levels are expressed relative to 18S rRNA. Apo Al, Apo B, SR-Bl, SHP, LRH-1 and CYP7α mRNA levels were measured using the following oligonucleotides: For 18S: 5′-[…]-3′ and 5′-[…]-3′; for APO Al: 5′-[…]-3′ and 5′-[…]-3′; for Apo B: 5′-[…]-3′ and 5′-[…]-3′; for SR-Bl: 5′-[…]-3′ and 5′-[…]-3′; for SHP: 5′-[…]-3′ and 5′-[…]-3′; for LRH-1: 5′-[…]-3′ and 5′-[…]-3′; for CYP7α:5′-[…]-3′ and 5′-[…]-3′.
HepG2 cells, cultured in 24-well plates, were treated for 48 hours with Compound I, 10 μm or vehicle (DMSO 0.1%) prior to harvest and determination of APOAl mRNA levels by RT-QPOCR as described in Example 1 above.

T1 sequence (O00482 288-541): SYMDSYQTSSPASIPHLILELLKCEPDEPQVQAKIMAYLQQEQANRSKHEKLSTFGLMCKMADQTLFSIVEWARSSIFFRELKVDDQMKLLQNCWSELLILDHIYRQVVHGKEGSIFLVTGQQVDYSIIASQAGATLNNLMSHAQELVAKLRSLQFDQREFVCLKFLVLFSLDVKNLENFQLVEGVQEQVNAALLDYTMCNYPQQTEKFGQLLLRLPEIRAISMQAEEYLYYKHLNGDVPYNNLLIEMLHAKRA
T1 sequence (as listed by the source partner): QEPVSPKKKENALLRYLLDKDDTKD

CCC/C=C(\CCC)C1=C(c2ccccc2)[C@@]2(Nc3ccccc3)CCC[C@H]2C1 [Compound 1]
EC50 ([1]; LRH1 agonist activity, TIF2 Box3 peptide recruitment, read-out: ave pEC50 (converted)): 257 nM
ave % basal (maximum observed increase in agonist activity compared to the vehicle control) [1]: 277 % basal
APO Al gene expression (APOAl mRNA levels) [2]: Induces APO Al Gene Expression

Source: patent publication US20080227864A1, “Lhr1 Activators as Medicaments” (priority 2004, published 2008)
